How the values were obtained:
AREc32 cells = assay: Cell viability of AREc32 cells (ATP quantification, Cell Titer-Glo); format: cell-based; details: 24 hours
Method: To determine the Nrf2 activation the samples were tested on AREc32 cells (seeded in 96 well plates) using 10 independent dilutions (½, ¼, ⅙, 1/10, 1/15, 1/20, 1/25, 1/30, 1/40 and 1/50) and incubated for 24 hours at 37° C. in a 5% CO2/air incubator. The luciferase activity and the cell viability (ATP measurements) were determined using the Luciferase and Cell Titer-Glo kits from Promega.
The cell viability was also measured using a cell Titer-Glo kit (ATP quantification).

NF-κB [1] = assay: NF-κB activity (SEAP and IL-8 production) in HT-29 clone 34 cells; format: cell-based, human
Method: The human colonic adenocarcinoma HT-29 clone 34 cell line (passage 42-50) are adherent cells stably transfected with a NF-κB/SEAP reporter plasmid. They were cultured in DMEM high glucose (4.5 g/L) (Invitrogen) containing 1% of stable L-glutamine and supplemented with 10% of heat inactivated (one hour at 56° C.) Foetal Calf Serum (FCS) (Bioconcept, Allschwil, Switzerland), 1% of Penicillin/Streptomycin (Sigma) and 500 μg/ml of Geneticin (PAA, Pasching, Austria) at 37° C. in a 5% CO2/air incubator. Culture medium was renewed every two days until the cell monolayer reached ˜90% confluence. Cells were sub-cultured using 1× Trypsin/EDTA (Sigma).
(§1) 10000 cells/well were seeded in 200 μl of culture medium in flat bottom white border 96 well plates (Greiner Bio One, Kremsmuenster, Austria). […] 20 μl of experimental medium containing (or not) LPS 055:B5 or rhTNF-α (100 and 10 ng/ml final, respectively) was added and the plates were incubated for 24 hours at 37° C. in a 5% CO2/air incubator.
Cell culture supernatants were then collected for measurement of NF-κB activity (determination of secreted alkaline phosphatase and IL-8 production) using Phosphalight (Applied Biosystems) and IL-8 singleplex (Meso Scale, Gaithersburg, Md.) kits, respectively.

NF-κB [2] = assay: NF-κB activity (secreted alkaline phosphatase) in THP-1 blue cells; format: cell-based, human; details: THP-1 blue cells stimulated with LPS
Method: Human monocytes/macrophages THP-1 blue cells (passage 16-20) (Invivogen, Toulouse, France) were cultured in modified RPMI medium (ATCC, Manassas, Va.) containing 1 mM of sodium pyruvate, 2 mM of L-glutamine, 4.5 g/L of glucose and 10 mM of HEPES supplemented with 10% of heat inactivated FCS (Bioconcept), 1% of Penicillin/Streptomycin (Sigma) and 500 μg/ml of Zeocin (Invivogen) at 37° C. in a 5% CO2/air incubator. 200000 cells/well were seeded in 100 μl of culture medium in 96 well flat bottom transparent plates. […] 20 μl of culture media containing (or not) LPS 055:B5 (Sigma) (100 ng/ml final) was added and the plates were incubated for 16 hours at 37° C. in a 5% CO2/air incubator. Cell culture supernatants were carefully transferred to 96 well-plates for NF-κB activity measurement which is proportional to the level of secreted alkaline phosphatase. Briefly, 100 μl of supernatants were mixed with 150 μl of QuantiBlue (Invivogen) in a 96 well-plates incubated for 3 h at 37° C. before OD measurements at 620 nm with Sunrise microplate reader (Tecan, Mannedorf, Switzerland). Cell viability was determined using Cell Titer-Glo kit as described above.

Nrf2 = Nrf2 reporter assay (ARE-luciferase) in AREc32 cells; format: cell-based; details: 24 hours
Method: Activation of Nrf2 was measured using an Nrf2 reporter assay. This assay is based on the AREc32 cell line, from CRX biosciences (Dundee, Scotland), a stably transfected MCF7 (breast adenocarcinoma) cell line that contains a luciferase gene construct under the control of the ARE. […] Anti-oxidative molecules such as Tert-butylhydroquinone (TBHQ) induce luciferase transcription via the activation of Nrf2 that binds to ARE. Luciferase activity is determined using a luciferase kit form Promega (Madison, Wis.). The luciferase activity is proportional to the activation of Nrf2. […] The luciferase activity and the cell viability (ATP measurements) were determined using the Luciferase and Cell Titer-Glo kits from Promega. For each run the luciferase activities, measured in Relative Light Units (RLU), of all the wells were normalized with the mean of the luciferase activity of the cells only of all the plates. […] For each sample the Nrf2 activation was calculated as follows: 1) The Nrf2 fold induction: The Nrf2 fold induction is very useful for screening purposes. […] The luciferase content per sample allows a semi quantification of the Nrf2 activation by reflecting the amount of the Nrf2 activating molecule. […] The cell viability was also measured using a cell Titer-Glo kit (ATP quantification).

HT-29 clone 34 cells = assay: Cell viability of HT-29 clone 34 cells (ATP, Cell Titer-Glo); format: cell-based, human; details: ATP measurement
Method: as §1
Cell viability was determined by measuring ATP using a Cell Titer-Glo kit (Promega). Briefly, remaining adherent HT-29 clone 34 cells were incubated for 10 min at room temperature under horizontal shaking (250 rpm) with 120 μl of Cell Titer-Glo reagent (pre-diluted twice in 1×PBS) and the luminescence was measured using Polarstar microplate reader (BMG, Offenburg, Germany) for 1000 ms with a gain value set to 3500.

THP-1 blue cells = assay: Cell viability of THP-1 blue cells (Cell Titer-Glo); format: cell-based, human
Method: 200000 cells/well were seeded in 100 μl of culture medium in 96 well flat bottom transparent plates. […] 20 μl of culture media containing (or not) LPS 055:B5 (Sigma) (100 ng/ml final) was added and the plates were incubated for 16 hours at 37° C. in a 5% CO2/air incubator.
Cell culture supernatants were carefully transferred to 96 well-plates for NF-κB activity measurement which is proportional to the level of secreted alkaline phosphatase. Briefly, 100 μl of supernatants were mixed with 150 μl of QuantiBlue (Invivogen) in a 96 well-plates incubated for 3 h at 37° C. before OD measurements at 620 nm with Sunrise microplate reader (Tecan, Mannedorf, Switzerland). Cell viability was determined using Cell Titer-Glo kit as described above.

[3] = HT-29 clone 34 cells stimulated with LPS

CC(=O)/C=C/C(=O)O [4-oxo-2-pentenoic acid]
Doses at which viability of AREc32 cells was not affected (AREc32 cells): lower than 70 μM
Dose giving the best inhibition of SEAP and IL-8 secretion (NF-κB [1]; [3]): 50 µM
Inhibition of NF-κB activity (in words) (NF-κB [1]; [3]): inhibits NF-κB activity in a dose dependent manner
NF-κB activity (SEAP or IL-8) in the absence of LPS (NF-κB [1]; HT-29 clone 34 cells, no LPS, doses tested 3 to 400 μM): no NF-κB activity was observed
Doses giving strong NF-κB inhibition (NF-κB [2]): 40 to 75 µM
Nrf2 activation (in words) (Nrf2): strongly activate Nrf2 in a dose dependent manner
Optimal dose of Nrf2 activation (Nrf2; dose range 0 to 200 μM): 40 to 50 µM
Doses giving a decrease in cell viability of HT-29 clone 34 cells (HT-29 clone 34 cells): > 50 µM
Doses toxic to cells (THP-1 blue cells): higher than 75 μM

From patent publication US20150057349A1 (NESTEC S.A., priority 2012, published 2015)
